In patent US10294244B2, “2,3-dihydro-thiazolo[3,2-A]pyridin-5-one derivatives, intermediates thereof, and their use as antibacterial agents” (Quretech Bio AB, priority 2014, dated 2019):

System: C. trachomatis serovar LGV-L2
Experiment: Inhibition of infectious Chlamydia progenies (C. trachomatis infectivity, reinfection of HeLa cells, IFU count)
Type: cell-based
Conditions: infected HeLa cells, MOI 0.3, compound added 1 hpi, 44-48 h, relative to DMSO-treated control; for inhibition at 10 µM: 10 uM compound; for inhibition at 50 µM: 50 uM compound; for inhibition at 100 µM: 100 uM compound
Procedure: Cell Culture, C. trachomatis Infections, and Determination of C. trachomatis Infectivity.
HeLa cells were infected with C. trachomatis serovar LGV-L2 at an MOI of 0.3. At 1 hpi, RPMI media containing the different dilutions of the tested compounds in DMSO were added. The different compounds were dissolved to 20 mM in DMSO and were then diluted with RPMI media to be added at 2.5 to 100 μM. After 44-48 h incubation, the cells were osmotically lysed by the addition of cold sterile distilled water to release infectious EB progeny. 5×SPG was added to equalize the osmotic pressure to a 1×SPG isotonic condition. An equal amount of HBSS (Hanks balanced salt solution) (Gibco/Invitrogen) was added to the lysate (yielding a 1:1 dilution) and 10-fold serial dilutions of the resulting mixture was used to infect fresh HeLa cells. At 1 hpi, the inoculum was replaced with RPMI media and the infection allowed to progress for 44-48 hours before fixation and staining. Fixation was performed by adding methanol for 5 minutes and the cells were subsequently washed with phosphate buffered saline (PBS). The chlamydial inclusions were stained by a primary rabbit anti-Chlamydia antibody (generated in-house) and a secondary donkey anti-rabbit FITC-labelled antibody (Jackson ImmunoResearch). The DNA of the cells and Chlamydia was stained by the addition of DAPI. The stained cells were analyzed by an ArrayScan automated scanner (ArrayScan VTI HCS, Thermo Scientific). Data were presented as the relative numbers of IFUs in treated infections compared to the numbers of IFUs in DMSO-treated control infections.
The compounds of Examples 1-33 were tested for inhibition of infectious Chlamydia progenies at concentrations of 2.5 μM, 10 μM, 50 μM and 100 μM. In this document μM stands for micromolar. The compounds of the present disclosure were considered to have antibacterial activity if they provided 50% or more inhibition of infectious Chlamydia progenies using at least one of the tested concentrations in Table 1.

SMILES | inhibition at 10 µM [%] | inhibition at 50 µM [%] | inhibition at 100 µM [%]
CS(=O)(=O)Nc1c(Cc2cccc3ccccc23)cc(=O)n2c1SC[C@H]2C(=O)Nc1ccccc1 [Example 25, Anilino{7-(methylsulfonylamino)-6-[(1-naphthyl)methyl]-4-oxo-1-thia-3a-aza-3-indanyl}formaldehyde] | 97 | 97 | –
CC(=O)Nc1c(Cc2cccc3ccccc23)cc(=O)n2c1SC[C@H]2C(=O)Nc1ccccc1 [Example 26, 1-{3-Anilinocarbonyl-6-[(1-naphthyl)methyl]-4-oxo-1-thia-3a-aza-7-indanylamino}-1-ethanone] | 54 | 87 | –
COC(=O)Nc1c(Cc2cccc3ccccc23)cc(=O)n2c1SC[C@H]2C(=O)Nc1ccccc1 [Example 27, {(3R)-7-(Methoxycarbonylamino)-6-[(1-naphthyl)methyl]-4-oxo-1-thia-3a-aza-3-indanyl}anilinoformaldehyde] | 96 | 98 | –
O=C(O)[C@@H]1CSc2c(OCC3CC3)c(Cc3cccc4ccccc34)cc(=O)n21 [Example 28, (3R)-7-(Cyclopropylmethoxy)-6-[(1-naphthyl)methyl]-4-oxo-1-thia-3a-aza-3-indancarboxylic acid] | – | – | 56
O=C(O)[C@@H]1CSc2c(C(F)(F)F)c(Cc3cccc4ccccc34)cc(=O)n21 [Example 29, (3R)-6-[(1-Naphthyl)methyl]-4-oxo-7-(trifluoromethyl)-1-thia-3a-aza-3-indancarboxylic acid] | – | – | 56
CC(C)COc1c(Cc2cccc3ccccc23)cc(=O)n2c1SC[C@H]2C(=O)O [Example 30, (3R)-7-Isobutoxy-6-[(1-naphthyl)methyl]-4-oxo-1-thia-3a-aza-3-indancarboxylic acid] | – | 67 | 90
Cc1cccc(Cc2cc(=O)n3c(c2N(C)C)SC[C@H]3C(=O)O)c1C [Example 31, (3R)-7-(Dimethylamino)-4-oxo-6-[(2,3-xylyl)methyl]-1-thia-3a-aza-3-indancarboxylic acid] | – | 29 | 86
Cc1ccc(Cc2cc(=O)n3c(c2N(C)C)SC[C@H]3C(=O)O)c2ccccc12 [Example 32, (3R)-7-(Dimethylamino)-6-[(4-methyl-1-naphthyl)methyl]-4-oxo-1-thia-3a-aza-3-indancarboxylic acid] | – | 91 | 99
CC(C)Nc1c(Cc2cccc3ccccc23)cc(=O)n2c1SC[C@H]2C(=O)O [Example 33, (3R)-7-(Isopropylamino)-6-[(1-naphthyl)methyl]-4-oxo-1-thia-3a-aza-3-indancarboxylic acid] | – | – | 50
